Source: article PMC3826262 (MedChemComm, 2013)
Non-standard residues stand in square brackets, D forms with d. Residues, ends and D or L forms follow the SMILES beside them. *: point of attachment. Cbz = O=C(OCc1ccccc1)*; Dap = NC[C@H](N)C(=O)O

Assays:
NVPro = NVPro (Norovirus, UniProt Q83883); experiment: Inhibition of recombinant NVPro; type: biochemical; conditions: for fold less active than compound 1: ratio of Ki vs compound 1; for Ki: Table 1, recombinant NVPro
HOVPro = HOVPro (Norovirus Hu/Houston/TCH186/2002/US (Norovirus GII.4), UniProt A9YYE3); experiment: Inhibition of Houston virus protease; type: biochemical; conditions: HOVPro vs NVPro Ki

SMILES: CC(=O)NC[C@@H](C=O)NC(=O)[C@H](Cc1ccccc1)NC(=O)[C@H](CC(C)C)NC(=O)OCc1ccccc1 [compound 3] (Cbz-Leu-Phe-[Dap](Ac)-aldehyde)
- fold less active than compound 1 (NVPro; NVPro): ~ 12 fold

SMILES: CC(C)C[C@H](NC(=O)OCc1ccccc1)C(=O)N[C@@H](Cc1ccccc1)C(=O)N[C@H](C=O)CCC(=O)N(C)C [compound 1, Z-Leu-Phe-Gln(diMe)-CHO] (Cbz-Leu-Phe-Glu(NMe2)-aldehyde)
- fold more active than compound 8 (NVPro; NVPro, ratio of Ki): 380 fold
- fold more active than compounds 5 and 2 (NVPro; NVPro, ratio of Ki): 3-5 fold
- fold activity reduction against HOVPro as compared with NVPro (HOVPro): > 60 fold

SMILES: CCOC(=O)/C=C/[C@H](CNC(C)=O)NC(=O)[C@H](Cc1ccccc1)NC(=O)[C@H](CC(C)C)NC(=O)OCc1ccccc1 [compound 13]
- inhibitory activity against NVPro (NVPro; NVPro): Neither 12 nor 13 exhibits inhibitory activity
- Ki (NVPro): inactive

SMILES: CC(=O)[C@H](CCC(=O)N(C)C)NC(=O)[C@H](Cc1ccccc1)NC(=O)[C@H](CC(C)C)NC(=O)OCc1ccccc1 [compound 10]
- fold less active than compound 1 (NVPro; NVPro): 1,200 fold

SMILES: CNC(=O)CC[C@@H](C=O)NC(=O)[C@H](Cc1ccccc1)NC(=O)[C@H](CC(C)C)NC(=O)OCc1ccccc1 [compound 14] (Cbz-Leu-Phe-Glu(NHMe)-aldehyde)
- fold less active than compound 1 (NVPro; NVPro): 42 fold

SMILES: CCOC(=O)/C=C/[C@H](CCC(=O)N(C)C)NC(=O)[C@H](Cc1ccccc1)NC(=O)[C@H](CC(C)C)NC(=O)OCc1ccccc1 [compound 11]
- inhibitory activity against NVPro (NVPro; NVPro): essentially inactive
- Ki (NVPro): inactive

SMILES: CC(C)C[C@H](NC(=O)OCc1ccccc1)C(=O)N[C@@H](Cc1ccccc1)C(=O)N[C@H](C=O)CCC(=O)NC1CC1 [compound 15]
- fold improved inhibition as compared to compound 14 (NVPro; NVPro, ratio of Ki): ~ 3 fold

SMILES: CCOC(=O)/C=C/[C@H](CCC(N)=O)NC(=O)[C@H](Cc1ccccc1)NC(=O)[C@H](CC(C)C)NC(=O)OCc1ccccc1 [compound 12]
- inhibitory activity against NVPro (NVPro; NVPro): Neither 12 nor 13 exhibits inhibitory activity
- Ki (NVPro): inactive

SMILES: CC(=O)N[C@@H](CC(C)C)C(=O)N[C@@H](Cc1ccccc1)C(=O)N[C@H](C=O)CCC(=O)N(C)C [compound 9] (Ac-Leu-Phe-Glu(NMe2)-aldehyde)
- fold less active than compound 1 (NVPro; NVPro): > 300 fold
